“Also recorded” adds a separate entry of the source. Values belong to the compound of their own block, whether it stands above or below them.
Legend:
HK853 = HK853 (Thermotoga maritima, UniProt Q9WZV7); assay: Inhibition of HK853 activity, BODIPY-ATPγS competition, in-gel fluorescence; assay type: biochemical; details: for IC50 values (μM) (95% confidence interval), n = 2: HK853 inhibitory activity, value (95% confidence interval)
HK853 D411N = assay: Thermal shift assay; details: D411N alone Tm 67 °C; inhibitor 1 mM; no significant change
WT HK853 = assay: Thermal shift assay; details: WT HK853 alone Tm = 70 °C; inhibitor 1 mM
HSP90α = HSP90α (Homo sapiens, UniProt P07900); assay: HSP90 inhibition assay, fluorescence polarization Hsp90α kit; assay type: binding

- IC50 values (μM) (95% confidence interval), n = 2 (HK853): No Inhibition
SMILES: O=c1[nH]cnc2c1ncn2[C@@H]1O[C@H](CO)[C@@H](O)[C@H]1O [Inosine, reference compound]

- HK853 inhibition, result in words (HK853): negligible activity
SMILES: Nc1nc(N)c2ncn([C@@H]3O[C@H](CO)[C@@H](O)[C@H]3O)c2n1 [Compound 14, aminoadenosine]

SMILES: Nc1ncnc2c1ncn2[C@@H]1O[C@H](COP(=O)(O)OP(=O)(O)O)[C@@H](O)[C@H]1O [Compound 6, ADP, reference compound]
- change in the Tm value of HK853 D411N (HK853 D411N): ≤ 2 °C
- Tm of WT HK853 in the presence of compound (WT HK853): 80 °C

SMILES: Cn1cnc2nc(Cl)nc(N)c21 [Compound 28, 2-chloro,7-N-methyladenine]
- HK853 inhibition, result in words (HK853): inactive
- IC50 values (μM) (95% confidence interval), n = 2 (HK853): No Inhibition

SMILES: OC[C@H]1O[C@@H](n2cnc3c(NCCc4ccccc4)ncnc32)[C@H](O)[C@@H]1O [Compound 10, 6-N-phenylethyladenosine]
- HK853 inhibition, result in words (HK853): negligible activity
- fold decreased potency (HK853; HK853, riboside 10 versus lead 3): > 20 fold

- HK853 inhibition, result in words (HK853): minimal activity
SMILES: Nc1ncnc2[nH]nnc12 [Compound 30, 8-azadenine]

SMILES: OC[C@H]1O[C@@H](n2cnc3c(Nc4ccccc4)ncnc32)[C@H](O)[C@@H]1O [Compound 23, 6-anilinopurine ribose]
- HK853 inhibition, result in words (HK853): failed to inhibit
- IC50 values (μM) (95% confidence interval), n = 2 (HK853): No Inhibition

- HK853 inhibition, result in words (HK853): negligible activity
SMILES: Nc1nc(Cl)c2ncn([C@@H]3O[C@H](CO)[C@@H](O)[C@H]3O)c2n1 [Compound 20, 2-amino,6-chloropurine ribose]

SMILES: Nc1nc2c(ncn2[C@@H]2O[C@H](CO)[C@@H](O)[C@H]2O)c(=O)[nH]1 [Guanosine, reference compound]
- HK853 inhibition, result in words (HK853): neither guanine or guanosine inhibited HK853
- IC50 values (μM) (95% confidence interval), n = 2 (HK853): No Inhibition

- IC50 (HSP90α): ≤ 1250 µM
SMILES: CC1CC(Nc2ncnc3nc[nH]c23)CC(C)(C)C1 (stereo not drawn) [Compound 4, 6-N,N-(3,3,5-trimethylcyclohexyl) adenine]

SMILES: Nc1nc2ncnc-2c[nH]1 [Compound 21, 2-aminopurine]
- HK853 inhibition, result in words (HK853): low affinity; also recorded: negligible activity

SMILES: CCCN(CCC)c1[nH]cnc2ncnc1-2 [Compound 1, 6-N,N-dipropyl adenine]
- change in the Tm value of HK853 D411N (HK853 D411N): ≤ 2 °C

- HK853 inhibition, result in words (HK853): negligible activity
SMILES: Nc1nc(N)c2nc[nH]c2n1 [Compound 13, 2-aminoadenine]

- IC50 (HSP90α): ≤ 1250 µM
SMILES: c1ccc(CCNc2ncnc3[nH]cnc23)cc1 [Compound 3, 6-N-phenylethyladenine]

SMILES: Nc1nc2[nH]cnc2c(=O)[nH]1 [Guanine, reference compound]
- HK853 inhibition, result in words (HK853): neither guanine or guanosine inhibited HK853

- HK853 inhibition, result in words (HK853): failed to show any activity
- IC50 values (μM) (95% confidence interval), n = 2 (HK853): No Inhibition
SMILES: Cn1cnc2ncnc(N)c21 [Compound 26, 7-N-methyladenine]

SMILES: c1ccc(Nc2ncnc3[nH]cnc23)cc1 [Compound 22, 6-anilinopurine]
- fold superior potency compared to 3 (HK853; HK853): ~20 fold
- fold superior potency compared to 9 (HK853; HK853): ~60 fold

From PMC5743200 (Journal of medicinal chemistry, 2017)
